According to US8404696B2, “Quinazoline-2,4-dione derivative, and medical compositions for the prophylaxis and treatment of cranial nerve disease containing the same” (Shin Poong Pharmaceutical Co., Ltd., priority 2008, dated 2013):
Converted amounts (≈) assume the structure as drawn.

What was measured:
[1] = test system: mixed culture of nerve cells-glial cells; test: Protecting effect on NMDA-induced nerve cell death (LDH release); format: cell-based, ICR mouse; conditions: 100 μM NMDA, LDH release after 24 hours
Summary of the method: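 Embryonic day-14 ICR mouse cortical neurons seeded on cortical glia, Ara-C-treated, then exposed at day 12–15 for 20 min to 100 μM NMDA with compound at 1 or 2 μg/mL. LDH released 24 h later measured colorimetrically as a cell-death index.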

mouse brain cells = test: Inhibitory effect on ROS production in brain cells (DCF-DA, NMDA-induced); format: cell-based
[2] = test system: superoxide dismutase (SOD); test: Increase of superoxide dismutase (SOD) activity in mouse brain cells; format: cell-based; conditions: 100 μg/ml
Method: ROS inhibitory effect of compounds was represented to the dose suppressing 50% of production of reactive oxygen compared to control. […] The activity of superoxide dismutase (SOD) was measured by using a kit acquired in Sigma.

CC(=O)N(CCCCNCCCn1c(=O)[nH]c2ccccc2c1=O)CCCn1c(=O)[nH]c2ccccc2c1=O [Compound 3, N-[3-(2,4-dioxo-1,4-dihydro-2H-quinazolin-3-yl)propyl]-N-{4-[3-(2,4-dioxo-1,4-dihydro-2H-quinazolin-3-yl)propylamino]butyl}acetamide]
Inhibitory effect of cell death by NMDA-induced excitable neurotoxicity ([1]; 1 μg/ml compound): 45.5%
Inhibitory effect of cell death by NMDA-induced excitable neurotoxicity ([1]; 2 μg/ml compound): 54.4%
Suppression of oxidative stress induced by NMDA (DCF fluorescence) (mouse brain cells; 125 μg/ml and 250 μg/ml, 300 μM NMDA, 24 hours, FIG. 2): suppressed the oxidative stress induced by NMDA of nerve cells in a dose-dependent manner
IC50 (mouse brain cells; 24 h, dose suppressing 50% of production of reactive oxygen compared to control, mouse brain cells, read-out: ROS inhibitory effect ID50): 108 ± 27.2 µg/mL (≈ 203 µM)
Increase of SOD activity, compared to control [2]: 3.2 ± 2.7
